Measurements published in PMC11546786, “Designing Analogs of SAAP-148 with Enhanced Antimicrobial and Anti-LPS Activities” (International Journal of Molecular Sciences, 2024).
Ends that are not written are not given here.

What was measured:
[1] = system: Gram-negative bacteria (E. coli, P. aeruginosa, K. pneumoniae); experiment: Geometric mean of MICs against Gram-negative bacteria; assay type: cell-based; parameters: unit not given here
Description: (§1) The antibacterial activities of the peptides against […] were evaluated using a modified version of the Clinical Laboratory and Standards Institute (CLSI) broth microdilution method, as previously described. Briefly, the bacteria were cultured in liquid LB medium (comprising 10 g/L tryptone, 5 g/L yeast extract, and 10 g/L NaCl) at 37 °C until reaching mid-log phase. Subsequently, the bacterial concentration was adjusted to 1 × 10^6 colony-forming units (CFU)/mL. The peptides were then diluted serially with phosphate-buffered saline (PBS), followed by the addition of 50 μL of the diluted peptides to 50 μL of the bacterial suspension in a 96-well plate (Corning Inc., Lowell, MA, USA). After incubating at 37 °C for 18 to 20 h, the absorbance of each well was measured using a multi-well microplate reader (SpectraMax M5; Molecular Devices, Sunnyvale, CA, USA) at 600 nm.

[2] = system: Staphylococcus aureus (1.8721); assay type: cell-based
Description: (§2) The LL-37, SAAP-148 and its analogues peptides were synthesized according to the standard Fmoc procedure. The Fmoc-protected resin and monomers are first treated with a basic solvent (piperidine) to remove the amino protecting groups. The carboxyl group of the next amino acid is activated by an activator. The activated monomer reacts with the free amino group to form a peptide bond. These two steps are repeated in a cycle until the synthesis is complete. After synthesis, the peptide is eluted from the column and purified by reverse-phase semipreparative high-performance liquid chromatography as detailed in Table 1. The peptides were dissolved in PBS to create a 1000 μmol/L stock solution for subsequent use. The purity of the synthetic peptide exceeded 95%. Blood samples from healthy donors were obtained from the Fifth Medical Center of Chinese PLA General Hospital (Beijing, China). Human normal lung epithelial cells (BEAS-2B) and mouse mononuclear macrophages cells (RAW 264.7) were sourced from Beyotime Biotechnology (Beijing, China), along with the Enhanced Cell Counting Kit-8 (CCK-8) and nitric oxide detection kit. RPMI-1640 and DMEM were procured from Merck (Darmstadt, Germany), while FBS was obtained from ExCell Bio (Shanghai, China). LPS-B5 (from E. coli 055:B5) was procured from Invivogen (Toulouse, France). Five bacterial strains, including Escherichia coli (1.8732), Pseudomonas aeruginosa (1.2421), Klebsiella pneumonia (1.1736) as Gram-negative bacteria, and Staphylococcus aureus (1.8721) and Staphylococcus epidermidis (1.4260) as Gram-positive bacteria, were procured from the China General Microbiological Culture Collection Centre (CGMCC) (Beijing, China).
as §1

[3] = system: Staphylococcus epidermidis (1.4260); assay type: cell-based
Description: as §2, §1

[4] = system: Pseudomonas aeruginosa (1.2421); assay type: cell-based
Description: as §2, §1

[5] = system: Escherichia coli (1.8732); assay type: cell-based
Description: as §2, §1

[6] = system: Gram-positive bacteria (S. aureus, S. epidermidis); experiment: Geometric mean of MICs against Gram-positive bacteria; assay type: cell-based; parameters: unit not given here
Description: as §1

[7] = CD spectra, secondary structure by BeStSel; assay type: physicochemical; conditions: 30 μM SDS as printed, 100 μM peptide, 25 °C
Description: CD spectra (Figure S1) were acquired using a JASCO J-1500 spectropolarimeter (JASCO Inc., Easton, MD, USA) in 0.1 cm pathlength cells under nitrogen at 25 °C. The spectra were recorded in the range of 190 to 250 nm at a peptide concentration of 100 μM in SDS. Secondary structure was determined using the BeStSel server. Hydropathicity, mean relative hydrophobic moment, and charge of peptides were predicted using the HeliQuest (https://heliquest.ipmc.cnrs.fr/ (accessed on 12 March 2024)). The 3D structure of SAAP-148 and its analogues (Figure S2) was predicted using PEP-FOLD4 servers (https://bioserv.rpbs.univ-paris-diderot.fr/services/PEP-FOLD4/ (accessed on 19 June 2024)).

[8] = system: human erythrocytes versus five bacterial strains; experiment: Therapeutic index (MHC/GM of MIC); conditions: for Fold (TI of analogue compared with SAAP-148): TI change relative to SAAP-148; for TI (MHC/MIC): ratio of MHC to geometric mean of MIC (five strains)
Description: The geometric mean of minimum inhibitory concentration (MIC) values (GM) from the five strains was calculated to provide a comprehensive assessment of antimicrobial activity, as presented in Table 4.
The therapeutic index (TI) is a widely utilized parameter for indicating the specificity of antimicrobial agents, which is determined by the ratio of MHC (hemolytic activity) and MIC (antimicrobial activity). Consequently, larger TI values signify greater antimicrobial specificity. The TI can be enhanced through one of three mechanisms: increasing antimicrobial activity, reducing hemolytic activity while maintaining antimicrobial activity, or a combination of both augmenting antimicrobial activity and diminishing hemolytic activity.

[9] = Reversed-phase HPLC retention time as measure of peptide hydrophobicity; assay type: physicochemical; conditions: retention time by reverse-phase HPLC, reflects hydrophobicity difference between analogues
Description: The physicochemical parameters crucial for the antimicrobial activity of AMPs have been identified, encompassing net charge, helicity, hydrophobicity, and amphipathicity. The hydropathicity, mean relative hydrophobic moment, and charge of peptides were predicted using the HeliQuest (https://heliquest.ipmc.cnrs.fr/ (accessed on 12 March 2024)). Lysine is a hydrophilic amino acid, and its substitution leads to a decrease in the hydrophobicity of the SAAP-148 analogue. The anticipated results are consistent, with the degree of reduction in […] varying depending on the position at which lysine is substituted (Table 2). The amphipathicity of the peptides, as denoted by the μH (mean relative hydrophobic moment), is elaborated on in Table 2. The hydrophobic moment of SAAP-148 analogues was decreased except for SAAP-10, which is on account of the substitution occurring on the18th residue. (Figure 1) The 18th residue of SAAP-148 is glutamine, a polar amino acid residue, located at the junction of the hydrophobic and hydrophilic surfaces of the SAAP-148 α-helix. […] The retention time data determined by reversed-phase high-performance liquid chromatography (RP-HPLC) reflects the hydrophobicity difference between peptide analogues. It is well documented that the formation of a hydrophobic-binding domain due to peptide secondary structure can affect peptide interactions with reversed-phase matrices. This effect was observed particularly for amphipathic α-helical peptides. Given this preferred binding domain, amphipathic α-helical peptides are considerably more retentive than non-amphipathic peptides with the same amino acid composition.
This phenomenon was particularly evident in the case of amphipathic α-helical peptides. […] This discrepancy may be attributed to the lack of a well-defined α-helical structure in SAAP-148 and its analogues (Figure S1).

[10] = system: five bacterial strains; experiment: MICs against all five bacterial strains (geometric mean, range); assay type: cell-based; parameters: unit not given here; conditions: geometric mean of MICs against all five bacterial strains
Description: as §1

[11] = system: Klebsiella pneumonia (1.1736); assay type: cell-based, Klebsiella pneumoniae
Description: as §2, §1

[12] = system: human erythrocytes; experiment: Haemolytic activity; assay type: cell-based
Description: The haemolytic activity of the peptides was evaluated using a standard procedure with minor adjustments. Fresh human erythrocytes were washed thrice and subsequently resuspended at 1.25% haematocrit in PBS. Forty microlitres PBS-diluted peptide solution was added to a 96-well plate (Corning Inc., Lowell, MA, USA), and 160 μL of erythrocytes was added. After incubation at 37 °C for 30 min, the samples were centrifuged, and the absorbance of the supernatant was measured at 450 nm using a multi-well microplate reader (SpectraMax M5; Molecular Devices, Sunnyvale, CA, USA) and compared with the 100% haemolysis caused by 0.1% Triton X-100. The percentage of haemolysis was calculated according to the equation: Haemolysis%=Asample−Ablank/Atriton−Ablank×100

[13] = system: LPS-induced NO in RAW264.7 macrophages; experiment: Inhibition of LPS-induced NO production, Griess assay; assay type: cell-based, mouse; conditions: 6.25 μM peptide, LPS 100 ng/mL, 24 h, Griess assay (Figure 4)
Description: LL-37 is a promising peptide for the regulation of inflammation and mitigation of endotoxin impact due to its ability to directly bind to LPS and counteract its biological effects, such as the inhibition of interleukin-6 (IL-6), interleukin 1β (IL-1β), and LPS-induced nitric oxide (NO). We conducted a series of experiments to assess the effectiveness of SAAP-148 and its analogues in reducing NO production by mouse mononuclear pacrophages cells (RAW264.7) after LPS stimulation. […] Subsequently, we employed a Griess assay to evaluate the levels of nitrite in RAW264.7 cells following treatment with SAAP-148 and its analogues, both with and without LPS treatment.
RAW264.7 cells were cultured in DMEM supplemented with 10% (v/v) FBS, 2 mM L-glutamine, 100 U/mL penicillin, and […] streptomycin, and maintained in a humidified incubator with 5% CO2 at 37 °C. Subsequently, RAW264.7 cells (1.5 × 10^4 cells/well) were seeded in 96-well plates (Corning Inc., Lowell, MA, USA) and incubated overnight. […] After incubation for 24 h, the culture supernatant was collected, and NO assay was performed according the instruction. The absorbance of the sample was measured at 550 nm.

Substance	GM to G− [1]	MIC S. aureus [2]	MIC S. epidermidis [3]	MIC P. aeruginosa [4]	MIC E. coli [5]	GM to G+ [6]	Others [7]	Turn [7]	α-Helix [7]	β-Antiparallel [7]	β-Parallel [7]	Fold (TI of analogue compared with SAAP-148) [8]	TI (MHC/MIC) [8]	Rt [9]	MIC (GM) [10]	MIC K. pneumoniae [11]	haemolytic activity compared with SAAP-148 [12]	NO inhibition ability [13]
LKRKWKRVFKLLKRYWRQLKKPVR-NH2 [SAAP-2]	4.97	50.00 µM	3.13 µM	3.13 µM	3.13 µM	12.51	0%	0%	93.5%	6.5%	0%	1	0.11	12.532 min	7.18	12.50 µM	comparable hemolytic activity to SAAP-148	–
LKRVWKRVFKLLKRYWRQLKKPVR-NH2 [SAAP-148]	4.96	50.00 µM	3.13 µM	3.13 µM	6.25 µM	12.51	0%	0%	93.5%	6.5%	0%	–	0.11	12.416 min	7.18	6.25 µM	–	comparable efficacy to LL-37
LKRVWKRVFKLLKRYWRQLKKKVR-NH2 [SAAP-12]	25	25.00 µM	6.25 µM	12.50 µM	12.50 µM	12.5	0%	0%	100%	0%	0%	0.36	0.04	16.604 min	18.95	100.00 µM	comparable hemolytic activity to SAAP-148	–
LKRVWKRVFKLLKRYWRKLKKPVR-NH2 [SAAP-10]	9.92	50.00 µM	3.13 µM	6.25 µM	6.25 µM	12.51	0%	0%	100%	0%	0%	0.64	0.07	13.69 min	10.88	25.00 µM	comparable hemolytic activity to SAAP-148	–
KKRVWKRVFKLLKRYWRQLKKPVR-NH2 [SAAP-1]	3.94	50.00 µM	3.13 µM	3.13 µM	3.13 µM	12.51	0%	0%	93.5%	6.5%	0%	1.1	0.12	11.419 min	6.25	6.25 µM	comparable hemolytic activity to SAAP-148	–
